According to PMC10449633 (Nature Chemical Biology, 2023):
Where “and” joins values, the source holds several entries; their conditions need not be identical. Equal entries are not always repeated. Where two headings read alike, the source gives them in different places. Numbered stars: 1 amine (or outer) side, 2 acyl side, 3 side chain; on linkers, the order of the positions; unused ones are H or OH. Square brackets hold non-standard residues; d marks the D form. Peptide text beside a SMILES is read from it. ξ: configuration not given here. X1 = CN(C(Cc1cn(Cc2ccc(Br)cc2)c2ccccc12)C(=O)[*:2])[*:1]; ξAla(CF3) = NC(CC(F)(F)F)C(=O)O; X2 = N#CCCC(O[*:1])C(=O)[*:2]; NMeL = CN[CH](CC(C)C)C(=O)O; NMeA = CN[CH](C)C(=O)O

Tests used:
[1] = molecular target: Wild Type Sec61α (Canis lupus familiaris, UniProt P38377); assay: Luciferase reporter assay in HEK293 Flp-In T-REx cells expressing Wild Type Sec61α; set-up: remaining activity: dose or concentration left out as unconfirmed; conditions: HEK293, 24 h, read-out: luciferase reporter activity (% of no-drug control), Wild Type
Wild Type Sec61α, sequence (P38377 whole entry): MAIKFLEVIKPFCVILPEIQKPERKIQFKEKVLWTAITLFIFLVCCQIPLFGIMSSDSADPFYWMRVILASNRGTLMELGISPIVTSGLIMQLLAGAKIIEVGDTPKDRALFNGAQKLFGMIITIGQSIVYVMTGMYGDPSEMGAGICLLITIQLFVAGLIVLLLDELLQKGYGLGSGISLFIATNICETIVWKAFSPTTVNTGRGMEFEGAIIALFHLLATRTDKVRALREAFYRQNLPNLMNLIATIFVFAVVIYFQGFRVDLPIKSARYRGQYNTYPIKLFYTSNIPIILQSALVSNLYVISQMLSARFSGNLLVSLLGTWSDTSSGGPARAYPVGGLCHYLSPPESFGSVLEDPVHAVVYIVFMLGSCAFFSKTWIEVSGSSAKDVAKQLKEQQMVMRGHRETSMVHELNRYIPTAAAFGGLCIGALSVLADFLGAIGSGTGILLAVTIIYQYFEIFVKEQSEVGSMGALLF
Wild Type Sec61α, sequence (P60468 whole entry, further chain): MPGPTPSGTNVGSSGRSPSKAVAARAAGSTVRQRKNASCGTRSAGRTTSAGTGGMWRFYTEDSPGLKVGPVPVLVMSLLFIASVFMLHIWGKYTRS
Wild Type Sec61α, sequence (P60059 whole entry, further chain): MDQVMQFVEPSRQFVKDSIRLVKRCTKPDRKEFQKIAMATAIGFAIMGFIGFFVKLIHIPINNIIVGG
Description: (§1) Data are mean values ± s.d. from n = 2 independent experiments.
(§2) HEK293T cells (0.3 × 10^6) were seeded per well of a six-well plate and incubated at 37 °C in 5% CO2 for 24 h to adhere. Each of the two wells was transfected with 1 µg of plasmid encoding a luciferase with the signal peptide of either VCAM1 or pPL using PEI in a 5:1 ratio, after which cells were returned to the incubator for a further 24 h. Transfected cells were then resuspended following trypsinization, cell count estimated using a TC20 Automated Cell Counter (BioRad) and diluted to seed a 96-well flat-bottom plate with 1.6 × 10^4 cells per well. […] Cells were then incubated for a further 24 h, after which the luciferase-containing media were transferred to a clean 96-well plate and stored at −20 °C. Luciferase activity of the media was estimated using a Gaussia-GLOW Juice Luciferase Assay kit from PJK Biotech GmbH as per the manufacturer’s instructions. Luminescence was measured using an EnSpire Multimode plate reader (PerkinElmer). Background luminescence from media placed in a well with neither cells nor drug was subtracted from all values, and measurements were calculated as a percentage of luminescence intensity of a well expressing the appropriate luciferase construct in the absence of any drug. Curves were fitted, and IC50 values were calculated using GraphPad Prism 8.
HEK293 Flp-In T-REx cells (Thermo Fisher Scientific, R78007) were cultured in Dulbecco’s modified Eagle’s medium (Gibco) supplemented with 10% FBS (Gibco) at 37 °C in a humidified 5% CO2 atmosphere. Approximately 0.3 µg of pOG44 and 1 µg of targeting construct plasmids were mixed in 250 µl of OptiMEM (Thermo Fisher Scientific, 51985-026). A total of 3 µl (3 µg) Lipofectamine3000 transfection reagent was then added to the DNA mix and incubated at room temperature for 20 min, and the whole mixture was added to the cells. Cells were exposed to 100 µg ml^−^1 hygromycin B (Invitrogen) and 10 µg ml^−^1 blasticidin for 3–4 weeks until the appearance of resistant colonies. Colonies were expanded into T75 flasks and induced with doxycycline (Sigma-Aldrich, D9891) at a concentration of 1–5 µg ml^−^1 for 48 h. Cells were collected, and total RNA was extracted followed by cDNA amplification and sequencing of Sec61 with gene-specific PCR primers to confirm. Cells were then used for the luciferase reporter assays as above.
(§3) Data are mean values ± SD and are representative of n = 2 independent experiments.

[2] = test system: mouse splenocytes; assay: Cytokine secretion assay, stimulated mouse splenocytes (MSD U-PLEX); type: cell-based; conditions: 24 h, tested 0.025–25,000 nM
[3] = molecular target: Sec61α V303A (Canis lupus familiaris, UniProt P38377, V303A); assay: Luciferase reporter assay in HEK293 cells expressing Sec61α V303A; set-up: remaining activity: dose or concentration left out as unconfirmed; conditions: HEK293, 24 h, read-out: luciferase reporter activity (% of no-drug control), V303A
Sec61α V303A, sequence (P60059 whole entry): as the sequence (P60059 whole entry, further chain) above
Sec61α V303A, sequence (P38377 whole entry V303A): as the sequence (P38377 whole entry) above, with V303A counted along it
Sec61α V303A, sequence (P60468 whole entry, further chain): as the sequence (P60468 whole entry, further chain) above
Description: as §1, §2
WT canine Sec61 was cloned into pcDNA5/FRT/TO (Thermo Fisher Scientific), and point mutations were generated using PCR. All mutants were sequence verified. HEK293 Flp-In T-REx cells (Thermo Fisher Scientific, R78007) were cultured in Dulbecco’s modified Eagle’s medium (Gibco) supplemented with 10% FBS (Gibco) at 37 °C in a humidified 5% CO2 atmosphere. Approximately 0.3 µg of pOG44 and 1 µg of targeting construct plasmids were mixed in 250 µl of OptiMEM (Thermo Fisher Scientific, 51985-026). A total of 3 µl (3 µg) Lipofectamine3000 transfection reagent was then added to the DNA mix and incubated at room temperature for 20 min, and the whole mixture was added to the cells. Cells were exposed to 100 µg ml^−^1 hygromycin B (Invitrogen) and 10 µg ml^−^1 blasticidin for 3–4 weeks until the appearance of resistant colonies. Colonies were expanded into T75 flasks and induced with doxycycline (Sigma-Aldrich, D9891) at a concentration of 1–5 µg ml^−^1 for 48 h. Cells were collected, and total RNA was extracted followed by cDNA amplification and sequencing of Sec61 with gene-specific PCR primers to confirm. Cells were then used for the luciferase reporter assays as above.
as §3

[4] = test system: mouse splenocytes; conditions: 24 h treatment
[5] = test system: SARS-CoV-2; conditions: Vero cells
[6] = test system: human peripheral blood mononuclear cells (PBMCs); assay: Cytokine secretion assay, stimulated human PBMCs (MSD U-PLEX); type: cell-based; conditions: for IC50: 24 h, tested 0.025–25,000 nM
[7] = test system: collagen antibody-induced arthritis in BALB/c mice; assay: Anticollagen antibody-induced arthritis model, clinical scores; type: in vivo, mouse
[8] = anti-CD3/CD28-stimulation, read-out: IC50, GM-CSF secretion
[9] = anti-CD3/CD28-stimulation, read-out: IC50, TNFα secretion

CC(C)CC1NC(=O)C(Cc2cn(Cc3ccc(Br)cc3)c3ccccc23)N(C)C(=O)C(CC(F)(F)F)NC(=O)C(CC(C)C)N(C)C(=O)C(CC(F)(F)F)NC(=O)C(CCC#N)OC(=O)C(C)N(C)C1=O (centres unmarked) [KZR-8445] (cyclo([X1]L[NMeA][X2][ξAla(CF3)][NMeL][ξAla(CF3)]); configuration not given here)
remaining activity at 0.00018303 µM ([1]; Drug nM (log10) 0.18303): 85.5% | remaining activity at 0.000660151 µM ([1]; Drug nM (log10) 0.660151): 69.5% | remaining activity at 0.00113727 µM ([1]; Drug nM (log10) 1.13727): 51.6% | remaining activity ([1]; Drug nM (log10) 1.61439): 27.8% | remaining activity ([1]; Drug nM (log10) 2.09151): 11.4% | remaining activity ([1]; Drug nM (log10) 2.56864): 4.55% | remaining activity ([1]; Drug nM (log10) 3.04576): 2.42% | remaining activity ([1]; Drug nM (log10) 3.52288): 1.93% | remaining activity at 0.004 µM ([1]; Drug nM (log10) 4): 2.26% | remaining activity at 0.00050805 µM ([1]; Drug nM (log10) -0.29409): 91.1% | IC50 ([2]; LPS-stimulation, read-out: IC50, IL-6 secretion): 0.15 µM | IC50 ([2]; Mus musculus, Splenocyte, LPS-stimulation, read-out: IC50, IL-1β secretion): > 25 µM | IC50 ([2]; Mus musculus, Splenocyte, LPS-stimulation, read-out: IC50, IL-6 secretion): 0.114 µM | IC50 ([2]; Mus musculus, Splenocyte, LPS-stimulation, read-out: IC50, IL-23 secretion): 0.206 µM | IC50 ([2]; Mus musculus, Splenocyte, anti-CD3/CD28-stimulation, read-out: IC50, GM-CSF secretion): 0.0312 µM | IC50 ([2]; Mus musculus, Splenocyte, anti-CD3/CD28-stimulation, read-out: IC50, IFNγ secretion): 0.0596 µM | IC50 ([2]; Mus musculus, Splenocyte, anti-CD3/CD28-stimulation, read-out: IC50, TNFα secretion): 0.103 µM | IC50 [2, 8]: 0.0395 µM | IC50 ([2]; anti-CD3/CD28-stimulation, read-out: IC50, IFNγ secretion): 0.032 µM | IC50 [2, 9]: 0.0847 µM | remaining activity at 0.00018303 µM ([3]; Drug nM (log10) 0.18303): 95.1% | remaining activity at 0.000660151 µM ([3]; Drug nM (log10) 0.660151): 82.2% | remaining activity at 0.00113727 µM ([3]; Drug nM (log10) 1.13727): 64.5% | remaining activity ([3]; Drug nM (log10) 1.61439): 42% | remaining activity ([3]; Drug nM (log10) 2.09151): 21.1% | remaining activity ([3]; Drug nM (log10) 2.56864): 8.79% | remaining activity ([3]; Drug nM (log10) 3.04576): 3.93% | remaining activity ([3]; Drug nM (log10) 3.52288): 2.95% | remaining activity at 0.004 µM ([3]; Drug nM (log10) 4): 3.21% | remaining activity at 0.00050805 µM ([3]; Drug nM (log10) -0.29409): 96.2% | cell viability (CTG assay) ([4]; 0.025 nM): 106.047 and 100.001 | cell viability (CTG assay) ([4]; 0.25 nM): 110.01 and 102.05 | cell viability (CTG assay) ([4]; 2.5 nM): 105.776 and 105.957 | cell viability (CTG assay) ([4]; 25 nM): 105.176 and 97.9523 | cell viability (CTG assay) ([4]; 250 nM): 107.467 and 93.3938 | cell viability (CTG assay) ([4]; 2500 nM): 99.7089 and 85.9729 | cell viability (CTG assay) ([4]; 25000 nM): 95.1208 and 88.5789 | virus-induced cytotoxicity [5]: blocked | IC50 ([6]; Homo sapiens, PBMC, LPS-stimulation, read-out: IC50, IL-1β secretion): > 25 µM | IC50 ([6]; Homo sapiens, PBMC, LPS-stimulation, read-out: IC50, IL-23 secretion): 0.167 µM | IC50 ([6]; Homo sapiens, PBMC, anti-CD3/CD28-stimulation, read-out: IC50, GM-CSF secretion): 0.189 µM | IC50 ([6]; Homo sapiens, PBMC, anti-CD3/CD28-stimulation, read-out: IC50, IL-2 secretion): 0.0422 µM | IC50 ([6]; Homo sapiens, PBMC, anti-CD3/CD28-stimulation, read-out: IC50, TNFα secretion): 0.0426 µM | IC50 ([6]; LPS-stimulation, read-out: IC50, IL-23 secretion): 0.233 µM and 0.188 µM and 0.19 µM | IC50s, secretion of six of seven tested cytokines ([6]; activated human PBMCs and mouse splenocytes): submicromolar | IC50 [6, 8]: 0.185 µM and 0.222 µM and 0.212 µM | IC50 ([6]; anti-CD3/CD28-stimulation, read-out: IC50, IL-2 secretion): 0.0387 µM and 0.039 µM and 0.0266 µM | IC50 [6, 9]: 0.0318 µM and 0.0375 µM and 0.0262 µM | secretion of IL-1β ([6]; not Sec61-dependent): unaffected | P versus vehicle (one-way ANOVA), disease progression ([7]; 10 mg kg−1 thrice weekly): 0.01 | P versus vehicle (one-way ANOVA), disease progression ([7]; 20 mg kg−1 thrice weekly): < 0.0001 | P versus vehicle, disease progression ([7]; 20 mg kg−1 weekly): 0.007 | efficacy of weekly administration ([7]; 20 mg kg−1 weekly): effective
